Test results: paper PMC9171587, “Novel α-Amylase Inhibitor Hemi-Pyocyanin Produced by Microbial Conversion of Chitinous Discards” (Marine Drugs, 2022)

Molecular target: T1, Porcine pancreatic α-amylase (Sus scrofa, UniProt P00690)
T1 construct: gene AMY2
T1 sequence (P00690 16-511): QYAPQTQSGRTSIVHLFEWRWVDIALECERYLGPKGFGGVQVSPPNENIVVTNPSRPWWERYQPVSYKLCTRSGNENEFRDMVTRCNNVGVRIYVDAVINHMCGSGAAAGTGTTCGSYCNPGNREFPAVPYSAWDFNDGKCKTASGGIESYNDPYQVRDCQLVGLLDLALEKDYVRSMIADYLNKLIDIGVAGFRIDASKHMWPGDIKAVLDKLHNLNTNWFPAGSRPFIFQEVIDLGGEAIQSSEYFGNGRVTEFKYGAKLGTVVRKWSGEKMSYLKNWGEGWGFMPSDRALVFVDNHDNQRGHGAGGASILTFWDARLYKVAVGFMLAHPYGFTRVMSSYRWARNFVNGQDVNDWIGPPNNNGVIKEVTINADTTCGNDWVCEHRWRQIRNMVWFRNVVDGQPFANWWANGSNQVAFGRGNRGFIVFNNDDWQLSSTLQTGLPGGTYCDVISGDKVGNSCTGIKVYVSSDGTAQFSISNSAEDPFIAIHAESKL
Assay: starch hydrolysis assay (Bernfeld, reducing sugar at OD540) with commercial enzyme type VI-B
Assay type: biochemical

Work on Oc1cccc2nc3ccccc3nc12 [SF-1, hemi-pyocyanin] yielded an IC50 of 15.8 µM.
